# Like-named read-outs stand apart in the source and are kept apart here.
# Tests used:
# Test in all cases: In vitro SBL inhibition assay (nitrocefin hydrolysis), IC50
# OXA-23 = OXA-23 (Acinetobacter baumannii, UniProt Q9L4P2); type: biochemical; settings: 10 min preincubation, 30°C, read-out: Enzyme IC50
# Method: (§1) Nitrocefin (Sigma-Aldrich, St Louis, MO, USA), a chromogenic cephalosporin antibiotic (λ, 482 nm; εM, 15,000 M^−1.cm^−1), was used as a reporter substrate at 100 µM for KPC-2, OXA-23, and OXA-48, at 200 µM for OXA-24 and OXA-51, and at 50 µM for OXA-58. Enzymes were preincubated in the presence of varying concentrations of each compound (0.006 to 3000 nM, diluted twofold in dimethyl sulfoxide (DMSO) for KPC-2, OXA-23, and OXA-48 assays and 0.51 to 10,000 nM diluted threefold in DMSO for OXA-24, OXA-51, and OXA-58) for 10 min at 30°C. Nitrocefin was then added and its hydrolysis by the uninhibited enzyme fraction was followed at an absorbance wavelength of 482 nm for 10 min at 30°C using Envision UV fluorescence plate reader (Perkin Elmer, Waltham, MA, USA). Hydrolysis rate data were used to determine inhibitory activities, expressed in IC50 values [corresponding to the compound concentration (µM) required to inhibit 50% of enzymatic reaction].
# OXA-24/40 = OXA-24/40 (Acinetobacter baumannii, UniProt Q8RLA6); type: biochemical; settings: 10 min preincubation, 30°C, read-out: Enzyme IC50
# Sequence of OXA-24/40 (Q8RLA6 22-275): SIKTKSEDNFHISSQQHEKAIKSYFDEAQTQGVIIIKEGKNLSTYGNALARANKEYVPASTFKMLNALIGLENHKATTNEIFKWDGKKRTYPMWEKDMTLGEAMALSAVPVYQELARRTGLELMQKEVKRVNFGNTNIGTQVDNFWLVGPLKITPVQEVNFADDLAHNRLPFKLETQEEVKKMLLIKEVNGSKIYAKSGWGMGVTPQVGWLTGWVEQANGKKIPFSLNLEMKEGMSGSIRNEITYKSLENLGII
# Method: as §1
# OXA-51 = OXA-51 (Acinetobacter baumannii, UniProt Q5QT35); type: biochemical, A. baumannii; settings: 10 min preincubation, 30°C, read-out: Enzyme IC50
# Sequence of OXA-51 (Q5QT35 entry or part of it): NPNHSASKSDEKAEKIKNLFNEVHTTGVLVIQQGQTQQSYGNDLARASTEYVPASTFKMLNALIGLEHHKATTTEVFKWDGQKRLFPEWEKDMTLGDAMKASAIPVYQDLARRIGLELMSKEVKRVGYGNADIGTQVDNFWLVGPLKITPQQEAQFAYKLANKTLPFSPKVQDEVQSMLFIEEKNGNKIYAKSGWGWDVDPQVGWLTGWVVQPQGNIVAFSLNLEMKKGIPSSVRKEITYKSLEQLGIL
# Method: as §1
# OXA-58 = OXA-58 (Acinetobacter baumannii, UniProt Q2TR58); type: biochemical, A. baumannii
# Sequence of OXA-58 (Q2TR58 19-280): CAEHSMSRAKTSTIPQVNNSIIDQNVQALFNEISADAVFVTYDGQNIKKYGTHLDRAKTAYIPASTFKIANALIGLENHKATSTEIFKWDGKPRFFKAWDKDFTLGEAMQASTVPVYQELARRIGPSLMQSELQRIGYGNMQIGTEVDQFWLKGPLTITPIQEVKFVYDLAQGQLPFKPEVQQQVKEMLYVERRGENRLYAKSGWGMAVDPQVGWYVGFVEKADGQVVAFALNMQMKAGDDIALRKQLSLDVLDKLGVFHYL
# Method: as §1
# KPC-2 = KPC-2 (Klebsiella pneumoniae, UniProt Q9F663); type: biochemical
# Sequence of KPC-2 (Q9F663 25-293 limits assumed): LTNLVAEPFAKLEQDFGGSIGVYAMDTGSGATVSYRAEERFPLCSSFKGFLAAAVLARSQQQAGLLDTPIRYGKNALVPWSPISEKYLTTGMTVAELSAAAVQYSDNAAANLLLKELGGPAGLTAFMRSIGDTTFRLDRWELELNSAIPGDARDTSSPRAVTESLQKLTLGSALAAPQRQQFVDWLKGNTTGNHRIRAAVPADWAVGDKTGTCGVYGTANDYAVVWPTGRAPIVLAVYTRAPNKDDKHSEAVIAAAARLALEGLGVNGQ
# Method: as §1
# OXA-48 = OXA-48 (Klebsiella pneumoniae, UniProt Q6XEC0); type: biochemical; settings: 10 min preincubation, 30°C, read-out: Enzyme IC50
# Sequence of OXA-48 (Q6XEC0 23-265, looked up, species assumed): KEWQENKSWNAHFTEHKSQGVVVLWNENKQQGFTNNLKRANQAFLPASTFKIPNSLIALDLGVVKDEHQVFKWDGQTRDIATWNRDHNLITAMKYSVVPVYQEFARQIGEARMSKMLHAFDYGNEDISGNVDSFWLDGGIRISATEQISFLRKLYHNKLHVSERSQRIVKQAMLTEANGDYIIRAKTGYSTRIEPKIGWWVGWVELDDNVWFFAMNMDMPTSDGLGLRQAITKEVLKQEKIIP
# Method: as §1
# Sequence of OXA-23 (Q9L4P2 18-273): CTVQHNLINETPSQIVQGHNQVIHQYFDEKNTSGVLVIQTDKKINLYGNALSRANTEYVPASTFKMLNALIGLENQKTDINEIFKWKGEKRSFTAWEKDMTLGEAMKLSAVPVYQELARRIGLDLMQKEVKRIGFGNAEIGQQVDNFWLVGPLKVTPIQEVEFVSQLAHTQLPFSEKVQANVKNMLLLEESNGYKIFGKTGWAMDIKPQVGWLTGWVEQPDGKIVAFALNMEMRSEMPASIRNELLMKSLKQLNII
Compound,IC50 (OXA-23) [µM],IC50 (OXA-24/40) [µM],IC50 (OXA-51) [µM],IC50 (OXA-58) [µM],IC50 (KPC-2) [µM],IC50 (OXA-48) [µM],"IC50 (KPC-2; KPC-2, 10 min preincubation, 30°C, read-out: Enzyme IC50) [µM]"
"O=C(NC1CCNCC1)[C@@H]1CC[C@@H]2CN1C(=O)N2OS(=O)(=O)O (relative stereo) [Rel, relebactam]",> 3,> 10,> 10,> 10,,,
"CC1=C[C@@H]2CN(C(=O)N2OS(=O)(=O)O)[C@@H]1C(N)=O [Dur, durlobactam]",0.347,0.208,4.3,0.011,0.0053,0.0034,
"NCCONC(=O)[C@@H]1CC[C@@H]2CN1C(=O)N2OS(=O)(=O)O [Nac, nacubactam]",> 3,> 10,> 10,> 10,0.0272,> 3,
"NCCN[C@H]1CC[C@H](CC(=O)N[C@H]2Cc3cccc(C(=O)O)c3OB2O)CC1 [Tan, taniborbactam]",> 3,> 10,> 10,> 10,0.0158,1.56,
"O=C(O)C[C@@H]1CC[C@H](NC(=O)Cc2cccs2)B(O)O1 [Vab, vaborbactam]",> 3,,,> 10,,> 3,0.102
"O=C(NNC(=O)[C@@H]1CC[C@@H]2CN1C(=O)N2OS(=O)(=O)O)[C@@H]1CCCNC1 [Zid, zidebactam]",> 3,> 10,> 10,> 10,0.0389,,
